inhibition, IC50 and microsomal CLint data for eight molecules are collected here from ChEMBL document CHEMBL5335866, “Structure-Based Optimization of Selective and Brain Penetrant CK1δ Inhibitors for the Treatment of Circadian Disruptions” (ACS Med Chem Lett, 2024).

Data set [1] concerns the target Epithelial discoidin domain-containing receptor 1 (Homo sapiens) (UniProt Q08345). The data set is described as follows: Inhibition of DDR1 (unknown origin) at 1 uM by radiometric assay relative to control.
Data set [2] concerns the target T1, TGF-beta receptor type-1 (Homo sapiens) (UniProt P36897).
T1 sequence (whole entry): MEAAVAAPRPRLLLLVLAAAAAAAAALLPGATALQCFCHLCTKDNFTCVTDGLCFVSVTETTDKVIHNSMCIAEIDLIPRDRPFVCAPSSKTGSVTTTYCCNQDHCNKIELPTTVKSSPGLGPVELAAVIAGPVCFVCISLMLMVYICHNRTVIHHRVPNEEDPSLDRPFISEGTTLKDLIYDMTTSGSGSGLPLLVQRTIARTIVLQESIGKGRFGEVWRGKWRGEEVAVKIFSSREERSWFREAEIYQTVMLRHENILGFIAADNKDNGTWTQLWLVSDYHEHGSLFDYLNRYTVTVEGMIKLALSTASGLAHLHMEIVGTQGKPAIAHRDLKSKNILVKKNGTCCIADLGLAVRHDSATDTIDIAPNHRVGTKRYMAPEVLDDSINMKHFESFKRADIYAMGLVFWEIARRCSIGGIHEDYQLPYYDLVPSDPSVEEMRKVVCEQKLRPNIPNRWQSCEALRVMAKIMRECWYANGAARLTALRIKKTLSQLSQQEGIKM
The data set is described as follows: Inhibition of TGFBR1 (unknown origin) at 1 uM by radiometric assay relative to control.

The target of data set [3] is Mitogen-activated protein kinase 14 (Homo sapiens, UniProt Q16539). Description: Inhibition of p38 alpha (unknown origin).
Sequence of Mitogen-activated protein kinase 14 (Q16539 whole entry): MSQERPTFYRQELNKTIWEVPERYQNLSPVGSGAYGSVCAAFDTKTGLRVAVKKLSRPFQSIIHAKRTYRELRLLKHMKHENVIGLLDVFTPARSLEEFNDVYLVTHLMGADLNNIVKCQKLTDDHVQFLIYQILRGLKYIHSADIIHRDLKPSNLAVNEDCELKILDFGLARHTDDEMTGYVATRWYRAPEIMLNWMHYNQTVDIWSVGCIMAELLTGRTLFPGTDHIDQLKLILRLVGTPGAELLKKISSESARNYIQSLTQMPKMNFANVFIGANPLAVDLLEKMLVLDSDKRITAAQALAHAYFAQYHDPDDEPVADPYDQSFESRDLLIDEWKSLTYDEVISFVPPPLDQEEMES
Data set [4] addresses Mitogen-activated protein kinase kinase kinase 20 (Homo sapiens) (UniProt Q9NYL2). The data set is described as follows: Inhibition of ZAK (unknown origin) at 1 uM by radiometric assay relative to control.
Data set [5] concerns the target T2, Dual specificity mitogen-activated protein kinase kinase 3 (Homo sapiens) (UniProt P46734).
T2 sequence (whole entry): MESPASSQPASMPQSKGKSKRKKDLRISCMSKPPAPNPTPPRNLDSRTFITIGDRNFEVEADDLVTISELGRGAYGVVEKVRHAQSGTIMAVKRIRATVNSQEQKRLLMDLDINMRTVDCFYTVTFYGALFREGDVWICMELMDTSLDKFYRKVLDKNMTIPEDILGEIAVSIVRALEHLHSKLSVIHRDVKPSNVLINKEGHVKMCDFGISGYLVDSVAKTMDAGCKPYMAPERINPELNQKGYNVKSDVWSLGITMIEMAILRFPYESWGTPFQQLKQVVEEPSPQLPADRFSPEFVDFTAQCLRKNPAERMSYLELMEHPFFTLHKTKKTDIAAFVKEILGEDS
The data set is described as follows: Inhibition of MKK3 (unknown origin) at 1 uM by radiometric assay relative to control.

The target in data set [6] is T3, Serine/threonine-protein kinase NLK (Homo sapiens) (UniProt Q9UBE8).
T3 sequence (whole entry): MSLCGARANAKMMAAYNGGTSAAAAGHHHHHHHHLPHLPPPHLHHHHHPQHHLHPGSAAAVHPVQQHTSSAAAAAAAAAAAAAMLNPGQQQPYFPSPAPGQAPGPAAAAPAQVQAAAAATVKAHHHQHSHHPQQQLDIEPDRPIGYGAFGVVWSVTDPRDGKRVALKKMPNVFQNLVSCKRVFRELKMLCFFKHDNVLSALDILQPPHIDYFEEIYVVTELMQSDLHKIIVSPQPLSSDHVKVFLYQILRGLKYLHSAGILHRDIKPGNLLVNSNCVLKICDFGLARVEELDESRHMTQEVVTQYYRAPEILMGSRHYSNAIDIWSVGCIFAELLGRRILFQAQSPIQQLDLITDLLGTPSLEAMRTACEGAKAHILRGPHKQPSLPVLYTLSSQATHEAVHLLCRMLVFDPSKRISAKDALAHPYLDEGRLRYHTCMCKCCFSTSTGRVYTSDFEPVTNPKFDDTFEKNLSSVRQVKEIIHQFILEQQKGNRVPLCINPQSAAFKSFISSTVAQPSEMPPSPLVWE
Description: Inhibition of NLK (unknown origin) at 1 uM by radiometric assay relative to control.

Data set [7] deals with TRAF2 and NCK-interacting protein kinase (Homo sapiens, UniProt Q9UKE5). The data set is described as follows: Inhibition of TNIK (unknown origin) at 1 uM by radiometric assay relative to control.
Sequence of TRAF2 and NCK-interacting protein kinase (Q9UKE5 whole entry, looked up): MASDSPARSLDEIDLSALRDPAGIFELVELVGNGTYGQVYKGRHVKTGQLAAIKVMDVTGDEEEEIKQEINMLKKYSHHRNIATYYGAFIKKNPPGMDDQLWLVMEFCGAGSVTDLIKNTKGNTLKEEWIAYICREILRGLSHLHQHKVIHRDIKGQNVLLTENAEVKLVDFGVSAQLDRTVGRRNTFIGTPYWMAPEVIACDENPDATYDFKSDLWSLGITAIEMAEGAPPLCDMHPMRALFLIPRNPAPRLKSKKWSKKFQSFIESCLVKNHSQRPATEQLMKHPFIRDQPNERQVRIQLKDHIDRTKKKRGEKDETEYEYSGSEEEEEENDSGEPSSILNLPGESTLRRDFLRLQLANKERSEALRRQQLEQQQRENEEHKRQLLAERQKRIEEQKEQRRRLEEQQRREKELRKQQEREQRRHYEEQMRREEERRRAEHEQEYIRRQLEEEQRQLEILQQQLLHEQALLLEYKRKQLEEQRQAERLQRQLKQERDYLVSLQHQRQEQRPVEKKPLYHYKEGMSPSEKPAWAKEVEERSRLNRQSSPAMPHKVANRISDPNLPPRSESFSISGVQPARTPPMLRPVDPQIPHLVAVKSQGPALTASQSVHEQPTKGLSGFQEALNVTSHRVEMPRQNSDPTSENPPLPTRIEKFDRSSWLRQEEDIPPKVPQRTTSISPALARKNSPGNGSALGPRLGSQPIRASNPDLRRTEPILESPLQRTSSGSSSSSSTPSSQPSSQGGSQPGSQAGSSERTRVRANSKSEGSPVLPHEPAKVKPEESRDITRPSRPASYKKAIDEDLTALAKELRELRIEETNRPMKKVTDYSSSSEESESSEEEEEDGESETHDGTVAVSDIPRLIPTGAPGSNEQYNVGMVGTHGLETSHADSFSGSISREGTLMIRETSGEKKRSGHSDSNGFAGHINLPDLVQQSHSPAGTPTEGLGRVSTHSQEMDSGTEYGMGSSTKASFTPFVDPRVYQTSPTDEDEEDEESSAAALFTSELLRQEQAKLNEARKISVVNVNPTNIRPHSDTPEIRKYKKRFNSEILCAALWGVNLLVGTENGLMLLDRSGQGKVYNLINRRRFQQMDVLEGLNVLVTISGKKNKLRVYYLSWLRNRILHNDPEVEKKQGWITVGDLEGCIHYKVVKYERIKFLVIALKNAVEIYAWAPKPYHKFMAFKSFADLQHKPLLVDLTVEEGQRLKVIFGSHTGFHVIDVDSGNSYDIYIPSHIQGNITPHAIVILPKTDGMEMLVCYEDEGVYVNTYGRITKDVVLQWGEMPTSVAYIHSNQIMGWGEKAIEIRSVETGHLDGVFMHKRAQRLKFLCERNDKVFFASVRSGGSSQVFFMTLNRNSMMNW
Data set [8] addresses Citron Rho-interacting kinase (Homo sapiens) (UniProt O14578). The data set is described as follows: Inhibition of CRIK (unknown origin) at 1 uM by radiometric assay relative to control.
Data set [9] deals with Receptor-interacting serine/threonine-protein kinase 2 (Homo sapiens) (UniProt O43353). Description: Inhibition of RIPK2 (unknown origin) at 1 uM by radiometric assay relative to control.
Sequence of Receptor-interacting serine/threonine-protein kinase 2 (Homo sapiens) (O43353 whole entry, canonical isoform): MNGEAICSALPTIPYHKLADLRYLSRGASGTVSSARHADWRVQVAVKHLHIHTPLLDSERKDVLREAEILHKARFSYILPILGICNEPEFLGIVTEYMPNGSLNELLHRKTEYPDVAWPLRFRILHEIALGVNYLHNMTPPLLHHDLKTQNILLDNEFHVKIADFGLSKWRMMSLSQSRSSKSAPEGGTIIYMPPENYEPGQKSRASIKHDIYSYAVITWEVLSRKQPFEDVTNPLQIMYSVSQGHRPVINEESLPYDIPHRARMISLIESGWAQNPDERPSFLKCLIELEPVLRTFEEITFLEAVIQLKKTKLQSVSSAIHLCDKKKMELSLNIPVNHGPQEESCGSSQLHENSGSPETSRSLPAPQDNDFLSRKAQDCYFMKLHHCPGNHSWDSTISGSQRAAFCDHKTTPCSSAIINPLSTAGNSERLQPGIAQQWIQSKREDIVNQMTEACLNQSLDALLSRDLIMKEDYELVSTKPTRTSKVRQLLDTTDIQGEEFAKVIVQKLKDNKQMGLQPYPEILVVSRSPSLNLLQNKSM
Data set [10] deals with Casein kinase I isoform delta (Homo sapiens, UniProt P48730). Description: Displacement of kinase tracer 8 from NanoLuc-tagged CK1 delta (unknown origin) transfected in CHO cells by BRET assay. Format: cell-based.
Sequence of Casein kinase I isoform delta (P48730 whole entry, canonical isoform): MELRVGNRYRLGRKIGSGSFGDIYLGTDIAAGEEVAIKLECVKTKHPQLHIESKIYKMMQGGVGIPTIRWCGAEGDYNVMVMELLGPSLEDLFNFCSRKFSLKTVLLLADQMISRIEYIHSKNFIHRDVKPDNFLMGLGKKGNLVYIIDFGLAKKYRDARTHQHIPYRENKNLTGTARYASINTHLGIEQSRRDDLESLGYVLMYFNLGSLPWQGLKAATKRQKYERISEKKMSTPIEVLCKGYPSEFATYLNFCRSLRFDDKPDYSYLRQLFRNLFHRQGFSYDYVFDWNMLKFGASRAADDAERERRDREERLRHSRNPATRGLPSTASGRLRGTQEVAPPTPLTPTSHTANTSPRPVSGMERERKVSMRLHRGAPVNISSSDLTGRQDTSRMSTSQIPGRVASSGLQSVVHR
A short description of data set [11]: Intrinsic clearance in rat liver microsomes at 1 uM preincubated for 5 mins followed by NADPH addition measured for 60 mins by LC-MS/MS analysis. In kind it is ADME, Microsome. As to conditions: time 65 min, read-out: CLH.
A short description of data set [12]: Intrinsic clearance in human liver microsomes at 1 uM preincubated for 5 mins followed by NADPH addition measured for 60 mins by LC-MS/MS analysis. In kind it is ADME, Microsome. The settings on record: time 65 min, read-out: CLH.

Sequence of Citron Rho-interacting kinase (Homo sapiens) (O14578 whole entry): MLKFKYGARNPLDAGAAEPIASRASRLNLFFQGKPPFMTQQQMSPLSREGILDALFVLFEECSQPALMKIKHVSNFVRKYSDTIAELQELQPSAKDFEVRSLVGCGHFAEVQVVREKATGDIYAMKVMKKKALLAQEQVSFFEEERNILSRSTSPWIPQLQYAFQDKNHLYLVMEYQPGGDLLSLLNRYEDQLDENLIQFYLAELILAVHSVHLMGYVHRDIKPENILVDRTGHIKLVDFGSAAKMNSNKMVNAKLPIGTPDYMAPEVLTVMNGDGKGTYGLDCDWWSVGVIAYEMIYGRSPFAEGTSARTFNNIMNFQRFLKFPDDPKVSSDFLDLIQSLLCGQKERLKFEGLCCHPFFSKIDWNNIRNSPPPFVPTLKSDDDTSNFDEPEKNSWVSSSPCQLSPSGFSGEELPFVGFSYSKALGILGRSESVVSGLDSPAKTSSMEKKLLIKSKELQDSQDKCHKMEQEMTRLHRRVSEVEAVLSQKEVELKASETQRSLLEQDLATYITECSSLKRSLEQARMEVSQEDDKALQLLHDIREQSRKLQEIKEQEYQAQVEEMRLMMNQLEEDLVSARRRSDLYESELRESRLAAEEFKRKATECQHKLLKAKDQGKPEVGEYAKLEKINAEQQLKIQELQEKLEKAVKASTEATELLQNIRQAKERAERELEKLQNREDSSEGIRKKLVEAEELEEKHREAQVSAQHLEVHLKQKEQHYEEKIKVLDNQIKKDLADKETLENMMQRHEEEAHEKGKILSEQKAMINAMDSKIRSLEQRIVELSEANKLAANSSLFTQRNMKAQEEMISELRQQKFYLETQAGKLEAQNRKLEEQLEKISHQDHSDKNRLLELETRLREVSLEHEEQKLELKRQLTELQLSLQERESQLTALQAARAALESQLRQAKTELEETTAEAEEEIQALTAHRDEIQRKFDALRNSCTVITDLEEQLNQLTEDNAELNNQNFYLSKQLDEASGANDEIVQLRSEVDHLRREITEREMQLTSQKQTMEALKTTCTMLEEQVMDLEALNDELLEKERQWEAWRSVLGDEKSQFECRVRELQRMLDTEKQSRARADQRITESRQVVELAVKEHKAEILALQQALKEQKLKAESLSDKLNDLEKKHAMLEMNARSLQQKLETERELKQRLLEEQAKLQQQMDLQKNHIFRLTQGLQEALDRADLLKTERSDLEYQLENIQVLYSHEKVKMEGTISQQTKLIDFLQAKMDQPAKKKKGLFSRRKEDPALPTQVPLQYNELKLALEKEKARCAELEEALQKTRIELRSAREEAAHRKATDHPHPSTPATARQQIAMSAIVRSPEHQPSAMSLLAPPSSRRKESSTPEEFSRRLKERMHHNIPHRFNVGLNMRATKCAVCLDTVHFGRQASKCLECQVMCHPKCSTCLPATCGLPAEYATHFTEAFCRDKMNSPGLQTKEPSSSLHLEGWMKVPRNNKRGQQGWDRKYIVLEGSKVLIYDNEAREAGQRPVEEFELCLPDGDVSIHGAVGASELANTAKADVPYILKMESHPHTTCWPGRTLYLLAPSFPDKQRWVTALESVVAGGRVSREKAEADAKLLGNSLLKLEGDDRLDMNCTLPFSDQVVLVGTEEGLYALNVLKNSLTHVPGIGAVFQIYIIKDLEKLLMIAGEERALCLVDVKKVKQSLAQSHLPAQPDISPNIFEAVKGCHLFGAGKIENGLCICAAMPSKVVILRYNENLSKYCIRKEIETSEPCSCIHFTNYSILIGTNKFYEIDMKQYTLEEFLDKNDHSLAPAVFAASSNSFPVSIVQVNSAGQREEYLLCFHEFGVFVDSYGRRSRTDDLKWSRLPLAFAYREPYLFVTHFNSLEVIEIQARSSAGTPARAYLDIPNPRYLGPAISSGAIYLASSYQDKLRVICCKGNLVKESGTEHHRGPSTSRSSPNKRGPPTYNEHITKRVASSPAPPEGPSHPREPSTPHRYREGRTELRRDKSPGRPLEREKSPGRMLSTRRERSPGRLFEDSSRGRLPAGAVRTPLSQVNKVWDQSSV

With `Cn1cc(-c2cc(N)nc3[nH]ccc23)c(-c2ccc(F)cn2)n1`, the inhibition is 8% in data set [1]; 8% in [2]; 18% in data set [4]; 29% in data set [5]; 0% in [6]; 39% in data set [7]. In addition, the inhibition was 0% in data set [8] and 3% in data set [9]. The IC50 in data set [3] was greater than 10 µM.

In turn, `Fc1ccc(-c2nn3c(c2-c2ccnc4[nH]ncc24)CCC(F)(F)C3)nc1` gave an IC50 in [10] of 300 nM.

Regarding `CC1(C)Cn2nc(-c3ccc(F)cn3)c(-c3ccnc4[nH]ccc34)c2CO1`, the inhibition in [1] turned out to be 25%; in data set [2] it was 49%; in [4], 20%; in data set [5], 40%; in data set [6], 16%; in data set [7] it was 84%. The values for the inhibition in data set [8] and in data set [9] were 15% and 39%, respectively. For the same molecule, inhibition in [3] was half-maximal at 2.1 µM (IC50). For the same molecule, the microsomal CLint at 1 µM in [11] amounted to 42.9 µL/min/mg; in [12], 15.1 µL/min/mg.

`Cn1cc(-c2ccnc3[nH]c(C(F)(F)F)cc23)c(-c2ccc(F)cn2)n1`: the inhibition in data set [1] turned out to be 68%; in [2] it was 69%; in [4] it was 87%; in [5], 75%; in data set [6] it was 83%; in data set [7] it was 85%. Besides, the inhibition in data set [8] was 54%; in data set [9], 63%. Also, the IC50 is 0.2 µM in data set [3] and 250 nM in [10].

`Fc1ccc(-c2nn3c(c2-c2ccnc(NC4CCOCC4)n2)COCC3)cc1` had a concentration for half-maximal inhibition (IC50) in data set [10] of 45 nM.

Turning to `Cn1cc(-c2c(C#N)cnc3[nH]ccc23)c(-c2ccc(F)cn2)n1`, the inhibition worked out at 20% in data set [1]; 17% in [2]; 40% in [4]; 11% in [5]; 17% in [6]; 88% in [7]. For the same molecule, the inhibition turned out to be 9% in [8] and 0% in data set [9]. This molecule also returned an IC50 in data set [3] of 6.2 µM.

Regarding `Cc1cnc2[nH]ccc2c1-c1cn(C)nc1-c1ccc(F)cn1`, the inhibition in [1] stood at 21%; in data set [2], 8%; in data set [4], 30%; in [5], 19%; in data set [6] it was 0%; in [7], 54%. In addition, the figures for the inhibition in [8] and in data set [9] were 14% and 0%, respectively. Besides, inhibition in data set [3] was half-maximal at 3 µM (IC50).

As for `Fc1ccc(-c2nn3c(c2-c2ccnc4[nH]ccc24)COCC3)nc1`, the inhibition in [1] was found to be 6%; in [2] it was 59%; in data set [4] it was 9%; in data set [5] it was 44%; in [6] it was 0%; in data set [7], 46%. Besides, the inhibition is 5% in data set [8] and 10% in [9]. The molecule further gave an IC50 in [3] of 4 µM.
